Source: patent US20260176267A1, “PREPARATION OF IMIDAZOPYRIDINE AND IMIDAZOPYRIDAZINE DERIVATIVES AS NOVEL DIACYLGLYCERIDE O-ACYLTRANSFERASE 2 INHIBITORS” (Merck Sharp & Dohme LLC, priority 2022, published 2026)

target: T1, human DGAT2 (hDGAT2) (Homo sapiens, UniProt Q96PD7); experiment: DGAT2 Enzymatic Activity Assay; format: biochemical; settings: membrane prep of Sf-9 cells expressing hDGAT2; 13C18-triolein product by LC/MS/MS; 25 μM diolein, 5 μM 13C oleoyl-CoA, rt
T1 construct: made in house; host or cells: Sf-9 insect cells (baculovirus), membrane fraction
T1 sequence (Q96PD7 1-388): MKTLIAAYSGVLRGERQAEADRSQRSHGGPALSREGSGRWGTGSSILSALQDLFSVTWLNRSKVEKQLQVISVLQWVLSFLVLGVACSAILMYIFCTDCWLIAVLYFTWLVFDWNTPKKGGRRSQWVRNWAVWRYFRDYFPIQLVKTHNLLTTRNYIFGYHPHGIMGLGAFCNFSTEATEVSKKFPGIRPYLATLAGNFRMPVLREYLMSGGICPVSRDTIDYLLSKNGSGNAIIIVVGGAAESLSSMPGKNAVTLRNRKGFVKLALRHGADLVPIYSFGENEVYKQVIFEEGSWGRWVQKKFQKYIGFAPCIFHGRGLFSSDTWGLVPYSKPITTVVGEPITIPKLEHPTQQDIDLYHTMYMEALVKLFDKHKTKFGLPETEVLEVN
Summary of the method: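 Membranes from Sf-9 cells expressing untagged human DGAT2 (baculovirus, 48 h) used as enzyme at rt. The product ^13C18-triolein is quantified by LC/MS/MS against a ^13C21-triolein internal standard. Percent inhibition is taken from high and low controls, and IC50 is derived.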

IC50 | SMILES
6.2 nM | Cc1c(C(=O)NC2(C)CS(=O)(=O)C2)nc2ccc(Oc3ncc(Cl)cc3OCC(F)(F)F)cn12 [Example 84, 6-[[5-chloro-3-(2,2,2-trifluoroethoxy)-2-pyridyl]oxy]-3-methyl-N-(3-methyl-1,1-dioxo-thietan-3-yl)imidazo[1,2-a]pyridine-2-carboxamide]
17 nM | Cc1c(C(=O)NC2(C)CCS(=O)(=O)CC2)nc2ccc(Oc3ncccc3OCC(F)(F)F)cn12 [Example 87, 3-methyl-N-(4-methyl-1,1-dioxo-thian-4-yl)-6-[[3-(2,2,2-trifluoroethoxy)-2-pyridyl]oxy]imidazo[1,2-a]pyridine-2-carboxamide]
8.3 nM | Cc1c(C(=O)NC2(C)CCS(=O)(=O)CC2)nc2ccc(Oc3ncc(F)cc3OCC(F)(F)F)cn12 [Example 88, 6-[[5-fluoro-3-(2,2,2-trifluoroethoxy)-2-pyridyl]oxy]-3-methyl-N-(4-methyl-1,1-dioxo-thian-4-yl)imidazo[1,2-a]pyridine-2-carboxamide]
22 nM | Cc1c(C(=O)NC2(C(C)C)CCS(=O)(=O)CC2)nc2ccc(Oc3ncc(F)cc3OCC(F)(F)F)cn12 [Example 91, 6-[[5-fluoro-3-(2,2,2-trifluoroethoxy)-2-pyridyl]oxy]-N-(4-isopropyl-1,1-dioxo-thian-4-yl)-3-methyl-imidazo[1,2-a]pyridine-2-carboxamide]
17 nM | Cc1c(C(=O)NC2(C)CCS(=O)(=O)CC2)nc2ccc(Oc3ncc(C(F)(F)F)cc3OCC(F)(F)F)cn12 [Example 92, 3-methyl-N-(4-methyl-1,1-dioxo-thian-4-yl)-6-[[3-(2,2,2-trifluoroethoxy)-5-(trifluoromethyl)-2-pyridyl]oxy]imidazo[1,2-a]pyridine-2-carboxamide]
12 nM | Cc1c(C(=O)NC2(C)CCS(=O)(=O)CC2)nc2ccc(Oc3ncc(F)cc3OCC(C)(F)F)cn12 [Example 94, 6-[[3-(2,2-difluoropropoxy)-5-fluoro-2-pyridyl]oxy]-3-methyl-N-(4-methyl-1,1-dioxo-thian-4-yl)imidazo[1,2-a]pyridine-2-carboxamide]
3 nM | CCOc1cc(C(F)(F)F)cnc1Oc1ccc2nc(C(=O)NC3(C)CCS(=O)(=O)CC3)c(C)n2c1 [Example 95, 6-[[3-ethoxy-5-(trifluoromethyl)-2-pyridyl]oxy]-3-methyl-N-(4-methyl-1,1-dioxo-thian-4-yl)imidazo[1,2-a]pyridine-2-carboxamide]
5.7 nM | Cc1cnc(Oc2ccc3nc(C(=O)NC4(C)CS(=O)(=O)C4)c(C)n3c2)c(OCC(F)(F)F)n1 [Example 96]
88 nM | Cc1c(C(=O)N[C@]2(C)CCS(=O)(=O)C2)nc2ccc(Oc3ncc(F)cc3OCC(F)(F)F)cn12 [Example 101]
342 nM | Cc1c(C(=O)NC2(C)CCS(=O)(=O)CC2)nc2ccc(Oc3ncc(F)cc3OCC(F)(F)C(F)F)cn12 [Example 104, 6-[[5-fluoro-3-(2,2,3,3-tetrafluoropropoxy)-2-pyridyl]oxy]-3-methyl-N-(4-methyl-1,1-dioxo-thian-4-yl)imidazo[1,2-a]pyridine-2-carboxamide]
638 nM | CCC1(NC(=O)c2nc3ccc(Oc4nccnc4OCC(F)(F)F)cn3c2C)CCS(=O)(=O)CC1 [Example 106, N-(4-ethyl-1,1-dioxo-thian-4-yl)-3-methyl-6-[3-(2,2,2-trifluoroethoxy)pyrazin-2-yl]oxy-imidazo[1,2-a]pyridine-2-carboxamide]
634 nM | Cc1ccnc(Oc2ccc3nc(C(=O)NC4(C)CCS(=O)(=O)CC4)c(C)n3c2)c1OCC(F)(F)F [Example 107, 3-methyl-N-(4-methyl-1,1-dioxo-thian-4-yl)-6-[[4-methyl-3-(2,2,2-trifluoroethoxy)-2-pyridyl]oxy]imidazo[1,2-a]pyridine-2-carboxamide]
131 nM | Cc1cnc(OCC(F)(F)F)c(Oc2ccc3nc(C(=O)NC4(C)CCS(=O)(=O)CC4)c(C)n3c2)n1 [Example 108, 3-methyl-N-(4-methyl-1,1-dioxo-thian-4-yl)-6-[6-methyl-3-(2,2,2-trifluoroethoxy)pyrazin-2-yl]oxy-imidazo[1,2-a]pyridine-2-carboxamide]
224 nM | Cc1c(C(=O)NC2(C)CCS(=O)(=O)CC2)nc2ccc(Oc3nccc(Cl)c3OCC(F)(F)F)cn12 [Example 109, 6-[[4-chloro-3-(2,2,2-trifluoroethoxy)-2-pyridyl]oxy]-3-methyl-N-(4-methyl-1,1-dioxo-thian-4-yl)imidazo[1,2-a]pyridine-2-carboxamide]
298 nM | Cc1ccc(OCC(F)(F)F)c(Oc2ccc3nc(C(=O)NC4(C)CCS(=O)(=O)CC4)c(C)n3c2)n1 [Example 111]

The remaining lines, values behind:

SMILES | IC50
CO[C@]1(C(F)(F)F)C[C@H](NC(=O)c2nc3ccc(Oc4ncc(F)cc4OCC(F)F)cn3c2C)C1 [Example 83, 6-[[3-(2,2-difluoroethoxy)-5-fluoro-2-pyridyl]oxy]-N-[3-methoxy-3-(trifluoromethyl)cyclobutyl]-3-methyl-imidazo[1,2-a]pyridine-2-carboxamide] | 12 nM
Cc1c(C(=O)NC2(C)CN(C(=O)C(F)(F)F)C2)nc2ccc(Oc3ncc(F)cc3OCC(F)F)cn12 [Example 85, 6-[[3-(2,2-difluoroethoxy)-5-fluoro-2-pyridyl]oxy]-3-methyl-N-[3-methyl-1-(2,2,2-trifluoroacetyl)azetidin-3-yl]imidazo[1,2-a]pyridine-2-carboxamide] | 1.6 nM
Cc1c(C(=O)NC2(C)CCC(F)(F)CC2)nc2ccc(Oc3ncccc3OCC(F)F)cn12 [Example 86, 6-[[3-(2,2-difluoroethoxy)-2-pyridyl]oxy]-N-(4,4-difluoro-1-methyl-cyclohexyl)-3-methyl-imidazo[1,2-a]pyridine-2-carboxamide] | 6.8 nM
Cc1c(C(=O)NC2(C)CN(C(=O)C(F)(F)F)C2)nc2ccc(Oc3ncc(F)cc3OCC(F)(F)F)cn12 [Example 89, 6-[[5-fluoro-3-(2,2,2-trifluoroethoxy)-2-pyridyl]oxy]-3-methyl-N-[3-methyl-1-(2,2,2-trifluoroacetyl)azetidin-3-yl]imidazo[1,2-a]pyridine-2-carboxamide] | 20 nM
Cc1c(C(=O)NC2(C)CS(=O)(=O)C2)nc2ccc(Oc3ncccc3OCC(F)F)cn12 [Example 90, 6-[[3-(2,2-difluoroethoxy)-2-pyridyl]oxy]-3-methyl-N-(3-methyl-1,1-dioxo-thietan-3-yl)imidazo[1,2-a]pyridine-2-carboxamide] | 5 nM
Cc1c(C(=O)NC2CCS(=O)(=O)C(C)(C)C2)nc2ccc(Oc3ncc(F)cc3OCC(F)F)cn12 (centres unmarked) [Example 93, 6-[[3-(2,2-difluoroethoxy)-5-fluoro-2-pyridyl]oxy]-N-(2,2-dimethyl-1,1-dioxo-thian-4-yl)-3-methyl-imidazo[1,2-a]pyridine-2-carboxamide] | 2.9 nM
Cc1c(C(=O)NC2CC(C(F)(F)F)C2)nc2ccc(Oc3ncc(F)cc3OCC(F)F)cn12 (centres unmarked) [Example 97, 6-[[3-(2,2-difluoroethoxy)-5-fluoro-2-pyridyl]oxy]-3-methyl-N-[3-(trifluoromethyl)cyclobutyl] imidazo[1,2-a]pyridine-2-carboxamide] | 4 nM
Cc1c(C(=O)NC23CC(F)(C2)C3)nc2ccc(Oc3ncc(F)cc3OCC(F)F)cn12 [Example 99] | 56 nM
Cc1c(C(=O)NC2(C)CCS(=O)(=O)C(C)(C)C2)nc2ccc(Oc3ncc(Cl)cc3OCC(F)F)cn12 (centres unmarked) [Example 100, 6-[[5-chloro-3-(2,2-difluoroethoxy)-2-pyridyl]oxy]-3-methyl-N-(2,2,4-trimethyl-1,1-dioxo-thian-4-yl)imidazo[1,2-a]pyridine-2-carboxamide] | 114 nM
Cc1c(C(=O)NC2(C)CCN(C(=O)C(F)(F)F)CC2)nc2ccc(Oc3ncc(F)cc3OCC(F)(F)F)cn12 [Example 102, 6-[[5-fluoro-3-(2,2,2-trifluoroethoxy)-2-pyridyl]oxy]-3-methyl-N-[4-methyl-1-(2,2,2-trifluoroacetyl)-4-piperidyl]imidazo[1,2-a]pyridine-2-carboxamide] | 128 nM
Cc1c(C(=O)NC2(C)CS(=O)(=O)C2)nc2ccc(Oc3ncc(C(F)(F)F)nc3OCC(F)(F)F)cn12 [Example 103, 3-methyl-N-(3-methyl-1,1-dioxo-thietan-3-yl)-6-[3-(2,2,2-trifluoroethoxy)-5-(trifluoromethyl)pyrazin-2-yl]oxy-imidazo[1,2-a]pyridine-2-carboxamide] | 71 nM
Cc1c(C(=O)NC2CCS(=O)(=O)C(C)(C)C2)nc2ccc(Oc3ncc(F)cc3OCC(F)(F)F)cn12 (centres unmarked) [Example 105, N-(2,2-dimethyl-1,1-dioxo-thian-4-yl)-6-[[5-fluoro-3-(2,2,2-trifluoroethoxy)-2-pyridyl]oxy]-3-methyl-imidazo[1,2-a]pyridine-2-carboxamide] | 193 nM
Cc1c(C(=O)NCC2(C)CS(=O)(=O)C2)nc2ccc(Oc3ncc(F)cc3OCC(F)(F)F)cn12 [Example 110, 6-[[5-fluoro-3-(2,2,2-trifluoroethoxy)-2-pyridyl]oxy]-3-methyl-N-[(3-methyl-1,1-dioxo-thietan-3-yl)methyl]imidazo[1,2-a]pyridine-2-carboxamide] | 957 nM
Cc1c(C(=O)NC2(CC(F)(F)F)CCCOC2)nc2ccc(Oc3ncccc3OCC(F)(F)F)cn12 (centres unmarked) [Example 112, 3-methyl-6-[[3-(2,2,2-trifluoroethoxy)-2-pyridyl]oxy]-N-[3-(2,2,2-trifluoroethyl)tetrahydropyran-3-yl]imidazo[1,2-a]pyridine-2-carboxamide] | 3380 nM
